Converted amounts (≈) assume the structure as drawn.
What was measured:
[1] = test system: production of TNF-α in rat PBMCs; assay: Inhibition of TNF-α production in rat PBMCs (LPS/IFN-γ stimulated, ELISA); type: cell-based; details: PBMC; for IC50: rat PBMCs, LPS + IFN-γ, 18 hours; for inhibition at 3 µg/mL: @ 3 μg/ml
Description: (§1) Compounds of this invention were evaluated for their ability to inhibit the production of TNF-α in stimulated immune cells. […] Compounds of the present invention were evaluated for their therapeutic activity in animal models for inflammatory or immunological disorders. Also compounds of this invention were assayed for their ability to inhibit PDE4 isozymes.
Inhibition of TNF-α Production in Rat PBMCs: Compounds of the present invention were evaluated for their ability to inhibit the production of TNF-α in rat peripheral blood mononuclear cells (PBMCs) as described in the literature. [Exp. Geront. vol 37, 235-247 (2002)] In brief, 6 ml rat blood drawn from the abdominal vein as treated with ACD (acid/citrate/dextrose) was carefully added in a tube containing 6 ml Ficoll 1077, and the tube was centrifuged for 30 min at 1500 rpm (415 G) at room temperature. The cell fraction (middle fraction) was suspended in a 50 ml tube containing phosphate buffered saline (PBS). The tube was centrifuged for 5 min at 2000 rpm (737 G). The resulting pellet was suspended in 6 ml PBS and 6 ml Ficoll 1077, and centrifuged for 30 min at 1500 rpm (415 G) at room temperature to remove remaining plasma. The cell fraction was suspended in PBS and centrifuged for 5 min at 2000 rpm. Such a washing was repeated twice. Then the collected cells were suspended in 10 ml RPMI-1640 containing 10% FBS and further diluted to contain 4×10^6 cells per ml. The cell suspension was dispensed into a 96-well plate at 100 μl per well, which was pre-supplemented with 1 μl of either DMSO (placebo) or a DMSO stock solution containing a designated concentration of a compound of this invention. The plate was cultured for an hour at 37° C. under 5% CO2 and 95% O2. To each well, was added 100 μl RPMI-1640 containing 0.1 μg/ml LPS, 5 U/ml IFN-γ, and 10% FBS. Then the plate was subjected to a culture for 18 hours at 37° C. under 5% CO2 and 95% O2. An aliquot of the supernatant from each well was subjected to an ELISA assay to determine the TNF-α level in the well.

[2] = test system: production of TNF-α in human PBMCs; assay: Inhibition of TNF-α production in human PBMCs (ELISA); type: cell-based; details: PBMC
Description: as §1
Inhibition of TNF-α Production in Human PBMCs: Compounds of the present invention were evaluated for their ability to inhibit the production of TNF-α in human PBMCs as described in the literature. [J. Med. Chem. vol 39, 3238-3240 (1996)] Blood was freshly drawn from healthy human subjects as treated with ACD to isolate human PBMCs according to the procedure employed for rat PBMCs. The employed assay method for the ELISA against human TNF-α was essentially identical to that for the rat TNF-α ELISA assay.

[3] = test system: production of TNF-α in mice stimulated with LPS; assay: In vivo inhibition of TNF-α production in mice stimulated with LPS; details: Mus musculus, 2 h, LPS i.p., plasma at hour 2, read-out: % Inhibition of in vivo TNF-α production @ dose; for inhibition in vivo at 3 mg/kg: 3 mg/kg oral gavage
Description: [J. Pharmacol. Exp. Therapeut. vol 279, 1453-1461 (1996)] In brief, either a compound of the instant invention with vehicle or vehicle only (5% Tween 80) was administered by oral gavage (10 ml/kg body weight) at hour 0 to mice (Balb/C or ICR, 25˜30 g) fasted overnight. The mice were subjected to a peritoneal injection with […] LPS per mouse at hour 0.5, and blood was drawn from the abdominal vein at hour 2 following euthanasia with CO2. Then plasma separated from the drawn blood by centrifugation was subjected to an ELISA assay to measure the level of TNF-α.

melting point | SMILES | IC50 [1] | also measured
162 to 163 °C | O=[N+]([O-])c1cccc(C2=C(C3CCCC3)CCC2=NO)c1 [Example 4, 3-cyclopentyl-2-(3-nitrophenyl)-2-cyclopenten-1-one oxime] | – | –
178 to 180 °C | Cc1ccc(C2=C(C3CCCC3)CCC2=NO)cc1[N+](=O)[O-] [Example 5, 3-cyclopentyl-2-(4-methyl-3-nitrophenyl)-2-cyclopenten-1-one oxime] | – | inhibition at 0.3 µg/mL ([1]; Rattus norvegicus, @ 0.3 μg/ml): 66%
167 to 168 °C | N#Cc1cc(C2=C(C3CCCC3)CCC2=NO)ccc1F [Example 13, 2-(3-cyano-4-fluorophenyl)-3-cyclopentyl-2-cyclopenten-1-one oxime] | 0.4 µg/mL | inhibition in vivo at 0.3 mg/kg ([3]; 0.3 mg/kg oral gavage): 70%
177 to 179 °C | C=Cc1ccc(C2=C(C3CCCC3)CCC2=NO)cc1 [Example 18, 3-cyclopentyl-2-(4-vinylphenyl)-2-cyclopenten-1-one oxime] | – | inhibition at 3 µg/mL ([1]; Rattus norvegicus): 78%
195 to 200 °C | ON=C1CCC(C2CCCC2)=C1c1cccc2c1oc1ccccc12 [Example 19, 3-cyclopentyl-2-(4-dibenzofuranyl)-2-cyclopenten-1-one oxime] | 1 µg/mL | –
164 to 165 °C | CS(=O)(=O)c1cccc(C2=C(C3CCCC3)CCC2=NO)c1 [Example 23, 3-cyclopentyl-2-(3-methylsulfonylphenyl)-2-cyclopenten-1-one oxime] | 1.2 µg/mL | –
207 to 209 °C | ON=C1CCC(C2CCCC2)=C1c1cccc(O)c1 [Example 24, 3-cyclopentyl-2-(3-hydroxyphenyl)-2-cyclopenten-1-one oxime] | – | –
– | OCc1cccc(C2=C(C3CCCC3)CCC2=NO)c1 [Example 25, 3-cyclopentyl-2-(3-hydroxymethylphenyl)-2-cyclopenten-1-one oxime] | 1.5 µg/mL | –
187 to 190 °C | OCc1ccc(C2=C(C3CCCC3)CCC2=NO)cc1 [Example 26, 3-cyclopentyl-2-(4-hydroxymethylphenyl)-2-cyclopenten-1-one oxime] | – | –
173 to 176 °C | ON=C1CCC(C2CCCCC2)=C1c1ccc(F)cc1 [Example 27, 3-cyclohexyl-2-(4-fluorophenyl)-2-cyclopenten-1-one oxime] | 0.34 µg/mL | inhibition in vivo at 3 mg/kg [3]: 87%
– | ON=C1CCC(C2CCCCC2)=C1c1ccc(F)c(F)c1 [Example 30, 3-cyclohexyl-2-(3,4-difluorophenyl)-2-cyclopenten-1-one oxime] | < 0.1 µg/mL | –
201 to 202 °C | O=[N+]([O-])c1cccc(C2=C(C3CCCCC3)CCC2=NO)c1 [Example 31, 3-cyclohexyl-2-(3-nitrophenyl)-2-cyclopenten-1-one oxime] | – | –
149 to 150 °C | COc1cccc(C2=C(C3CCCCC3)CCC2=NO)c1 [Example 32, 3-cyclohexyl-2-(3-methoxyphenyl)-2-cyclopenten-1-one oxime] | 0.49 µg/mL | inhibition in vivo at 3 mg/kg [3]: 92%
115 to 116 °C | CCCCC1=C(c2ccc(F)cc2)C(=NO)CC1 [Example 33, 3-butyl-2-(4-fluorophenyl)-2-cyclopenten-1-one oxime] | 2 µg/mL | –
– | CCCCC1=C(c2ccc(F)c(F)c2)C(=NO)CC1 [Example 34, 3-butyl-2-(3,4-difluorophenyl)-2-cyclopenten-1-one oxime] | 0.3 µg/mL | –
141 to 147 °C | CCCCC1=C(c2ccc(O)c(F)c2)C(=NO)CC1 [Example 41, 3-butyl-2-(3-fluoro-4-hydroxyphenyl)-2-cyclopenten-1-one oxime] | – | –
65 to 67 °C | CCCCC1=C(c2cccc(C(F)(F)F)c2)C(=NO)CC1 [Example 58, 3-butyl-2-{3-(trifluoromethyl)phenyl}-2-cyclopenten-1-one oxime] | – | inhibition at 3 µg/mL ([1]; Rattus norvegicus): 59%
101 to 102 °C | CCCCCC1=C(c2ccc(F)cc2)C(=NO)CC1 [Example 65, 2-(4-fluorophenyl)-3-pentyl-2-cyclopenten-1-one oxime] | ~1 µg/mL | IC50 [2]: 1.2 µg/mL (≈ 4.59 µM)
110 to 111 °C | CCCCCC1=C(c2ccccc2)C(=NO)CC1 [Example 66, 3-pentyl-2-phenyl-2-cyclopenten-1-one oxime] | 1 to 3 µg/mL | inhibition in vivo at 3 mg/kg [3]: 45%
79 to 80 °C | CCCCCC1=C(c2cccc([N+](=O)[O-])c2)C(=NO)CC1 [Example 71, 2-(3-nitrophenyl)-3-pentyl-2-cyclopenten-1-one oxime] | – | –
105 to 106 °C | CCCCCC1=C(c2ccsc2)C(=NO)CC1 [Example 77, 3-pentyl-2-(3-thienyl)-2-cyclopenten-1-one oxime] | 2.8 µg/mL | –
165 to 166 °C | CCCC1=C(c2ccc(F)cc2)C(=NO)CC1 [Example 78, 2-(4-fluorophenyl)-3-propyl-2-cyclopenten-1-one oxime] | 0.62 µg/mL | –
– | CCCC1=C(c2cccc([N+](=O)[O-])c2)C(=NO)CC1 [Example 80, 2-(3-nitrophenyl)-3-propyl-2-cyclopenten-1-one oxime] | 0.2 µg/mL | inhibition in vivo at 3 mg/kg [3]: 95%
168 to 169 °C | CCC1=C(c2ccc(F)cc2)C(=NO)CC1 [Example 81, 3-ethyl-2-(4-fluorophenyl)-2-cyclopenten-1-one oxime] | ~3 µg/mL | –
170 to 171 °C | CC1=C(c2ccc(F)cc2)C(=NO)CC1 [Example 83, 2-(4-fluorophenyl)-3-methyl-2-cyclopenten-1-one oxime] | ~10 µg/mL | –
154 to 157 °C | CC(C)CC1=C(c2ccc(F)cc2)C(=NO)CC1 [Example 85, 2-(4-fluorophenyl)-3-isobutyl-2-cyclopenten-1-one oxime] | 0.77 µg/mL | –
136 to 139 °C | CC(C)CC1=C(c2ccc(F)c(F)c2)C(=NO)CC1 [Example 86, 2-(3,4-difluorophenyl)-3-isobutyl-2-cyclopenten-1-one oxime] | 0.27 µg/mL | –
85 to 86 °C | CCCCCCCCCc1ccc(C2=C(CC(C)C)CCC2=NO)cc1F [Example 90, 2-(3-fluoro-4-n-nonylphenyl)-3-isobutyl-2-cyclopenten-1-one oxime] | – | –

SMILES | melting point | IC50 [1] | also measured
N#Cc1cccc(C2=C(C3CCCC3)CCC2=NO)c1 [Example 12, 2-(3-cyanophenyl)-3-cyclopentyl-2-cyclopenten-1-one oxime] | 180 to 182 °C | 0.1 µg/mL | IC50 [2]: 0.16 µg/mL (≈ 0.601 µM)
CC(C)CC1=C(c2cccc(C#N)c2)C(=NO)CC1 [Example 89, 2-(3-cyanophenyl)-3-isobutyl-2-cyclopenten-1-one oxime] | 138 to 140 °C | 0.09 µg/mL | –

Source: patent publication US8013187B2, “2-cyclopenten-1-one oxime derivatives inhibiting production of TNF-α” (Amorepacific Corporation, priority 2004, dated 2011)
